This experiment has as its target FP receptor (Homo sapiens (Human), UniProt P43088). As to the kind of experiment: In vitro test of inhibition of human FP receptor activity (PGF2α-induced calcium flux in FP-expressing CHEM1 cells). Format: cell-based. The note with it: PGF2α-induced (2 nM) calcium flux in FP-expressing CHEM1 cells; some as mean values from multiple determinations. The source says:
Table 1 below lists the IC50 values from this assay for individual working examples of the invention (some as mean values from multiple independent individual determinations): […]
On the technique in general: Calcium assays in cells follow changes in intracellular calcium, usually with a dye or a luminescent sensor.
Sequence of FP receptor (P43088 whole entry): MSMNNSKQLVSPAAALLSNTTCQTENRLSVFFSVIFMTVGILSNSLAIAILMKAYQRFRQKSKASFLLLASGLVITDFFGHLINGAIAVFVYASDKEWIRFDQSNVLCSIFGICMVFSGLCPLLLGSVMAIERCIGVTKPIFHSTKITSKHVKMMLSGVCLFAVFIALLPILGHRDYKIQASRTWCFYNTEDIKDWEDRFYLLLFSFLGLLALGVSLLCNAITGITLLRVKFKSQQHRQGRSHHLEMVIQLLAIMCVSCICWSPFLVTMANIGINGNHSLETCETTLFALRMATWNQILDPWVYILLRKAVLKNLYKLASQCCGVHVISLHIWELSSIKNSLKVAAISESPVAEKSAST
Take `Cc1c(-c2ccccc2)nc2ccc(Br)cc2c1C(=O)NCC(CC(=O)O)c1ccccc1` (racemic) [Example 63, (+/−)-4-{[(6-Bromo-3-methyl-2-phenylquinolin-4-yl)carbonyl]amino}-3-phenylbutanoic Acid]: the IC50 – broadly, the midpoint of a concentration-inhibition curve – came to 340 nM.

Take `Cc1c(-c2ccccc2)nc2ccc(Br)cc2c1C(=O)NCC(C)(C(=O)O)c1c(F)cccc1F` (single isomer, unassigned; (-)) [Example 34, (−)-3-{[(6-Bromo-3-methyl-2-phenylquinolin-4-yl)carbonyl]amino}-2-(2,6-difluorophenyl)-2-methylpropanoic Acid]: the half-inhibitory concentration (IC50) came out at 130 nM.

As to `Cc1c(-c2ccccc2)nc2ccc(Br)cc2c1C(=O)NC(C)C(CC(=O)O)c1ccccc1Cl` (single isomer, unassigned; (-)) [Example 146, (−)-4-{[(6-Bromo-3-methyl-2-phenylquinolin-4-yl)carbonyl]amino}-3-(2-chlorophenyl)pentanoic Acid], the IC50 was greater than 1000 nM.

Turning to `Cc1c(-c2ccccc2)nc2ccc(Br)cc2c1C(=O)NCC(C)(CCC(=O)O)c1ccccc1Cl` (single isomer, unassigned; (+)) [Example 156, (+)-5-{[(6-Bromo-3-methyl-2-phenylquinolin-4-yl)carbonyl]amino}-4-(2-chlorophenyl)-4-methylpentanoic Acid], the IC50 was found to be 8 nM.

For `Cc1c(-c2ccccc2)nc2ccc(Br)cc2c1C(=O)NCC(C)(CC(=O)O)c1ccccn1` (racemic) [Example 117, (+/−)-4-{[(6-Bromo-3-methyl-2-phenylquinolin-4-yl)carbonyl]amino}-3-methyl-3-(pyridin-2-yl)butanoic Acid], the IC50 stood at 240 nM.

For `Cc1c(-c2ccccc2)nc2ccc(Br)cc2c1C(=O)NCC(CC(=O)O)c1ccccn1` (racemic) [Example 102, (+/−)-4-{[(6-Bromo-3-methyl-2-phenylquinolin-4-yl)carbonyl]amino}-3-(pyridin-2-yl)butanoic Acid], the IC50 was found to be 460 nM.

`COc1ccccc1[C@@H](CNC(=O)c1c(C)c(-c2ccccc2)nc2ccc(Br)cc12)N1CCC(C(=O)O)C1` (stereo partly shown) [compound 248]: the IC50 came out at 13 nM.

Consider `Cc1c(-c2ccccc2)nc2ccc(Br)cc2c1C(=O)NCC(O)(C(=O)O)c1ccccc1` (single isomer, unassigned; (-)) [Example 21, (−)-3-{[(6-Bromo-3-methyl-2-phenylquinolin-4-yl)carbonyl]amino}-2-hydroxy-2-phenylpropanoic Acid], for which the IC50 was found to be 170 nM.

Turning to `Cc1c(-c2ccccc2)nc2ccc(Br)cc2c1C(=O)NCC(CCC(=O)O)c1ccccc1F` (stereo not shown) [compound 252], the IC50 was found to be 14 nM.

For the compound `CCOc1ccccc1C(CNC(=O)c1c(C)c(-c2ccccc2)nc2ccc(Br)cc12)CC(=O)O` (single isomer, unassigned; (+)) [Example 131, (+)-4-{[(6-Bromo-3-methyl-2-phenylquinolin-4-yl)carbonyl]amino}-3-(2-ethoxyphenyl)butanoic Acid], the IC50 was determined as 99 nM.

For the compound `COc1c(F)cc(F)cc1C(C)(CNC(=O)c1c(C)c(-c2ccccc2)nc2ccc(Br)cc12)CC(=O)O` (racemic) [Example 135, (+/−)-4-{[(6-Bromo-3-methyl-2-phenylquinolin-4-yl)carbonyl]amino}-3-(3,5-difluoro-2-methoxyphenyl)-3-methylbutanoic Acid], the concentration for half-maximal inhibition (IC50) came to 13 nM.

Take `Cc1c(-c2ccccc2)nc2ccc(Br)cc2c1C(=O)NCC(SCC(=O)O)c1ccccc1Cl` (single isomer, unassigned; (+)) [Example 195, (+)-{[2-{[(6-Bromo-3-methyl-2-phenylquinolin-4-yl)carbonyl]amino}-1-(2-chlorophenyl)ethyl]sulfanyl}acetic Acid]: the IC50 stood at 8 nM.

As to `COc1ccc(F)cc1C(C)(CNC(=O)c1c(C)c(-c2ccccc2)nc2ccc(Br)cc12)CC(=O)O` (single isomer, unassigned; (-)) [Example 134, (−)-4-{[(6-Bromo-3-methyl-2-phenylquinolin-4-yl)carbonyl]amino}-3-(5-fluoro-2-methoxyphenyl)-3-methylbutanoic Acid], the IC50 amounted to 800 nM.

Take `Cc1cccc(C(CNC(=O)c2c(C)c(-c3ccccc3)nc3ccc(Br)cc23)CC(=O)O)c1` (single isomer, unassigned) [Example 95, 4-{[(6-Bromo-3-methyl-2-phenylquinolin-4-yl)carbonyl]amino}-3-(3-methylphenyl)butanoic Acid]: the half-maximal inhibitory concentration (IC50) amounted to 84 nM.

On to `Cc1ccccc1C(CNC(=O)c1c(C)c(-c2ccccc2)nc2ccc(Br)cc12)CC(=O)O` (racemic) [Example 75, (+/−)-4-{[(6-Bromo-3-methyl-2-phenylquinolin-4-yl)carbonyl]amino}-3-(2-methylphenyl)butanoic Acid], for which the concentration for half-maximal inhibition (IC50) turned out to be 69 nM.

Take `COc1cccnc1C(CNC(=O)c1c(C)c(-c2ccccc2)nc2ccc(Br)cc12)CC(=O)O` (single isomer, unassigned; (+)) [Example 110, (+)-4-{[(6-Bromo-3-methyl-2-phenylquinolin-4-yl)carbonyl]amino}-3-(3-methoxypyridin-2-yl)butanoic Acid]: the IC50 came to 75 nM.

As for `COc1ccc(F)cc1C(CNC(=O)c1c(C)c(-c2ccccc2)nc2ccc(Br)cc12)CC(=O)O` (racemic) [Example 123, (+/−)-4-{[(6-Bromo-3-methyl-2-phenylquinolin-4-yl)carbonyl]amino}-3-(5-fluoro-2-methoxyphenyl)butanoic Acid], the IC50 is 11 nM.

In the case of `Cc1c(-c2ccccc2)nc2ccc(Br)cc2c1C(=O)NCC(C(=O)O)c1ccccc1` (single isomer, unassigned; (+)) [Example 3, (+)-3-{[(6-Bromo-3-methyl-2-phenylquinolin-4-yl)carbonyl]amino}-2-phenylpropanoic Acid], the IC50 worked out at 270 nM.

Regarding `Cc1c(-c2ccccc2)nc2ccc(Br)cc2c1C(=O)NCC(C)(CCC(=O)O)c1ccccc1Cl` (racemic) [Example 154, (+/−)-5-{[(6-Bromo-3-methyl-2-phenylquinolin-4-yl)carbonyl]amino}-4-(2-chlorophenyl)-4-methylpentanoic Acid], the IC50 is 15 nM.

Turning to `Cc1c(-c2ccccc2)nc2ccc(Br)cc2c1C(=O)NCC(C)(C(=O)O)c1ccccc1Cl` (single isomer, unassigned; (-)) [Example 36, (−)-3-{[(6-Bromo-3-methyl-2-phenylquinolin-4-yl)carbonyl]amino}-2-(2-chlorophenyl)-2-methylpropanoic Acid], the 50% inhibitory concentration (IC50) stood at 810 nM.

As to `Cc1c(-c2ccccc2)nc2ccc(Br)cc2c1C(=O)NCC(CCC(=O)O)c1ccccc1F` (single isomer, unassigned; (-)) [Example 176, (−)-5-{[(6-Bromo-3-methyl-2-phenylquinolin-4-yl)carbonyl]amino}-4-(2-fluorophenyl)pentanoic Acid], the half-maximal inhibitory concentration (IC50) amounted to 12 nM.

Regarding `Cc1c(-c2ccccc2)nc2ccc(Br)cc2c1C(=O)NCC(c1ccccc1Cl)S(=O)(=O)CC(=O)O` (single isomer, unassigned) [Example 199, {[2-{[(6-Bromo-3-methyl-2-phenylquinolin-4-yl)carbonyl]amino}-1-(2-chlorophenyl)ethyl]sulfonyl}acetic Acid], the 50% inhibitory concentration (IC50) was found to be 25 nM.
